# Tests used:
# [1] = biological target: T1, Serine/threonine-protein kinase haspin (Homo sapiens) (UniProt Q8TF76); test: Inhibition of recombinant human haspin kinase domain (470 to 798 residues) extracted from bacteria using histone H3 (1 to 21) peptide as substrate assessed as residual activity at 10 uM incubated for 30 mins in presence of ATP by ADP-Glo kinase assay relative to control
# T1 sequence (whole entry): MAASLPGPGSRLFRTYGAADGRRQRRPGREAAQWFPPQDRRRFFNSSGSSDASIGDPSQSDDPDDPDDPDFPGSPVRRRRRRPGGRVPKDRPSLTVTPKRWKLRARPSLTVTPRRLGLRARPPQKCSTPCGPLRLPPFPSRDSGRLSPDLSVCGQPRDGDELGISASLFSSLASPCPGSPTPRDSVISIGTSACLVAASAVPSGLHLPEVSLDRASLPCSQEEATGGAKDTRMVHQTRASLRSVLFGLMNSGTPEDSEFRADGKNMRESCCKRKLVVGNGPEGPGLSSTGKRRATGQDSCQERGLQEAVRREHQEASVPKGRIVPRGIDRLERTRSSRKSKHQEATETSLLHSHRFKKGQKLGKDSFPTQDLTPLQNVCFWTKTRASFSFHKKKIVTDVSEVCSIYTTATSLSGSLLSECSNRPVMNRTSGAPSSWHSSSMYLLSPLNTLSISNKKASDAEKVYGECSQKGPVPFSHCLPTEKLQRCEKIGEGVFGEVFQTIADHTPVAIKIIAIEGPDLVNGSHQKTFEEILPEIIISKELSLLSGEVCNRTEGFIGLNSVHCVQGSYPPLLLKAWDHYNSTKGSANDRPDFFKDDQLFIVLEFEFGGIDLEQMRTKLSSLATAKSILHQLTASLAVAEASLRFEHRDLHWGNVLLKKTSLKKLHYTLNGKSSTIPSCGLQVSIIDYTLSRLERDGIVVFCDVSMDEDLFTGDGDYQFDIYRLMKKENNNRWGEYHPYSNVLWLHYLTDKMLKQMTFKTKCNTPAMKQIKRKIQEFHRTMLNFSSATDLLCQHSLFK
# [2] = biological target: T1, Serine/threonine-protein kinase haspin (Homo sapiens); test: Inhibition of recombinant human haspin kinase domain (470 to 798 residues) extracted from bacteria using histone H3 (1 to 21) peptide as substrate assessed as residual activity at 1 uM incubated for 30 mins in presence of ATP by ADP-Glo kinase assay relative to control
# [3] = biological target: T2, Serine/threonine-protein kinase haspin (Homo sapiens, UniProt Q8TF76); test: Inhibition of recombinant human haspin kinase domain (470 to 798 residues) extracted from bacteria using histone H3 (1 to 21) peptide as substrate incubated for 30 mins in presence of ATP by ADP-Glo kinase assay
# T2 sequence (Q8TF76 whole entry): T1 sequence (whole entry)
# [4] = biological target: Dual specificity tyrosine-phosphorylation-regulated kinase 1A (Rattus norvegicus) (UniProt Q63470); test: Inhibition of recombinant rat DYRK1A kinase domain (1 to 499 residues) extracted from bacteria using KKISGRLSPIMTEQ as substrate assessed as enzyme residual activity at 10 uM incubated for 30 mins in presence of ATP by ADP-Glo kinase assay relative to control
# [5] = biological target: Dual specificity protein kinase CLK1 (Mus musculus) (UniProt P22518); test: Inhibition of recombinant mouse CLK1 extracted from bacteria using GRSRSRSRSRSR as substrate assessed as enzyme residual activity at 10 uM incubated for 30 mins in presence of ATP by ADP-Glo kinase assay relative to control
# Dual specificity protein kinase CLK1 (Mus musculus), sequence (P22518 whole entry, looked up): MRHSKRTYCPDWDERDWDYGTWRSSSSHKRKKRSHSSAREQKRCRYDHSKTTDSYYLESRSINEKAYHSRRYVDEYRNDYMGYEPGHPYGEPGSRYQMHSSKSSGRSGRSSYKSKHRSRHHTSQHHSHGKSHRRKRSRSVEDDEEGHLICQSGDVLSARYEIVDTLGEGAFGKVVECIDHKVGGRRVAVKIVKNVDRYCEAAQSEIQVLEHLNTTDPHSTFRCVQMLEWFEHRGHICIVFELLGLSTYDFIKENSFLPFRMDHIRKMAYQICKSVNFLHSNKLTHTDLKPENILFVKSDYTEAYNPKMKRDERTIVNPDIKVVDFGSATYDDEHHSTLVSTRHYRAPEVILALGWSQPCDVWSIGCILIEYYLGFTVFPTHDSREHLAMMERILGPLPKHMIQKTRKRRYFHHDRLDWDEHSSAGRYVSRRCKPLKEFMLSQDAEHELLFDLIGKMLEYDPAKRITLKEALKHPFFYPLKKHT
# [6] = biological target: Dual specificity protein kinase CLK1 (Mus musculus) (UniProt P22518); test: Inhibition of recombinant mouse CLK1 extracted from bacteria using GRSRSRSRSRSR as substrate assessed as enzyme residual activity at 1 uM incubated for 30 mins in presence of ATP by ADP-Glo kinase assay relative to control
# [7] = biological target: Dual specificity protein kinase CLK1 (Mus musculus, UniProt P22518); test: Inhibition of recombinant mouse CLK1 extracted from bacteria using GRSRSRSRSRSR as substrate incubated for 30 mins in presence of ATP by ADP-Glo kinase assay
# Dual specificity protein kinase CLK1, sequence (P22518 whole entry, the tested form may be a part): as the sequence (P22518 whole entry, looked up) above
# [8] = biological target: Dual specificity tyrosine-phosphorylation-regulated kinase 1A (Rattus norvegicus) (UniProt Q63470); test: Inhibition of recombinant rat DYRK1A kinase domain (1 to 499 residues) extracted from bacteria using KKISGRLSPIMTEQ as substrate assessed as enzyme residual activity at 1 uM incubated for 30 mins in presence of ATP by ADP-Glo kinase assay relative to control
# [9] = biological target: Dual specificity tyrosine-phosphorylation-regulated kinase 1A (Rattus norvegicus, UniProt Q63470); test: Inhibition of recombinant rat DYRK1A kinase domain (1 to 499 residues) extracted from bacteria using KKISGRLSPIMTEQ as substrate incubated for 30 mins in presence of ATP by ADP-Glo kinase assay
# [10] = Inhibition of recombinant human CDK9/Cyclin T extracted from baculovirus infected Sf9 cells using YSPTSPSYSPTSPSYSPTSPSKKKK as substrate assessed as enzyme residual activity at 10 uM incubated for 30 mins in presence of ATP by ADP-Glo kinase assay relative to control
# [11] = Inhibition of recombinant human CDK9/Cyclin T extracted from baculovirus infected Sf9 cells using YSPTSPSYSPTSPSYSPTSPSKKKK as substrate assessed as enzyme residual activity at 1 uM incubated for 30 mins in presence of ATP by ADP-Glo kinase assay relative to control
# [12] = biological target: Glycogen synthase kinase-3 beta (Homo sapiens) (UniProt P49841); test: Inhibition of recombinant human GSK3beta extracted from baculovirus infected Sf9 cells using GS-1 (YRRAAVPPSPSLSRHSSPHQSpEDEEE) peptide as substrate assessed as enzyme residual activity at 10 uM incubated for 30 mins in presence of ATP by ADP-Glo kinase assay relative to control
# Glycogen synthase kinase-3 beta (Homo sapiens), sequence (P49841 whole entry, looked up, canonical isoform): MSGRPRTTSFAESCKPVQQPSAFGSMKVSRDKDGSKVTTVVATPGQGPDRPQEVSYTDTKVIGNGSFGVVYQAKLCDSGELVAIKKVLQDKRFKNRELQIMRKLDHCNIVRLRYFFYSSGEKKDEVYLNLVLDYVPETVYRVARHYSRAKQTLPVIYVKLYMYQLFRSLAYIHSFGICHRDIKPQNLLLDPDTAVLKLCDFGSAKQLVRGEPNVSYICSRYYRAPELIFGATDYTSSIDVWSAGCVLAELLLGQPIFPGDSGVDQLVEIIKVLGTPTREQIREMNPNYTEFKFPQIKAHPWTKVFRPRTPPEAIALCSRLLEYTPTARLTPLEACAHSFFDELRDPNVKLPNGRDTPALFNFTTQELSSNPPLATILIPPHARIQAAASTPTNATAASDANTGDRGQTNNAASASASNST
# [13] = biological target: Glycogen synthase kinase-3 beta (Homo sapiens) (UniProt P49841); test: Inhibition of recombinant human GSK3beta extracted from baculovirus infected Sf9 cells using GS-1 (YRRAAVPPSPSLSRHSSPHQSpEDEEE) peptide as substrate assessed as enzyme residual activity at 1 uM incubated for 30 mins in presence of ATP by ADP-Glo kinase assay relative to control
# [14] = biological target: Casein kinase I isoform epsilon (Homo sapiens) (UniProt P49674); test: Inhibition of recombinant human CK1epsilon extracted from baculovirus infected Sf9 cells using RRKHAAIGSpAYSITA peptide as substrate assessed as enzyme residual activity at 10 uM incubated for 30 mins in presence of ATP by ADP-Glo kinase assay relative to control
# Casein kinase I isoform epsilon (Homo sapiens), sequence (P49674 whole entry, looked up, canonical isoform): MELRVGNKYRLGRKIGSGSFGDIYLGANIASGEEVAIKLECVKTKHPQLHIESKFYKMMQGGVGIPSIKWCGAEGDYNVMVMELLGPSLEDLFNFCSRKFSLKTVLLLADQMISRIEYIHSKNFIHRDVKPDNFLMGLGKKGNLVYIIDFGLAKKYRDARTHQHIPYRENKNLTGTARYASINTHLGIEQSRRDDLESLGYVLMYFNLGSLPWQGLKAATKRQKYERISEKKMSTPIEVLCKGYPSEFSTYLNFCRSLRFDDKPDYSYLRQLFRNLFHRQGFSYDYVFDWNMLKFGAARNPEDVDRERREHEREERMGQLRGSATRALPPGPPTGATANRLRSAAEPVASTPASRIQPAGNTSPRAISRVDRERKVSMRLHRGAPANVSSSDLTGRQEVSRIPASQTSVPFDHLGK
# [15] = biological target: Casein kinase I isoform epsilon (Homo sapiens) (UniProt P49674); test: Inhibition of recombinant human CK1epsilon extracted from baculovirus infected Sf9 cells using RRKHAAIGSpAYSITA peptide as substrate assessed as enzyme residual activity at 1 uM incubated for 30 mins in presence of ATP by ADP-Glo kinase assay relative to control
# [16] = biological target: T3, Cyclin-dependent kinase 5/CDK5 activator 1 (Homo sapiens) (UniProt Q00535+Q15078); test: Inhibition of recombinant human CDK5/p25 extracted from bacteria using histone H1 as substrate assessed as enzyme residual activity at 10 uM incubated for 30 mins in presence of ATP by ADP-Glo kinase assay relative to control; assay type: protein-complex assay
# T3 sequence (Q00535 whole entry): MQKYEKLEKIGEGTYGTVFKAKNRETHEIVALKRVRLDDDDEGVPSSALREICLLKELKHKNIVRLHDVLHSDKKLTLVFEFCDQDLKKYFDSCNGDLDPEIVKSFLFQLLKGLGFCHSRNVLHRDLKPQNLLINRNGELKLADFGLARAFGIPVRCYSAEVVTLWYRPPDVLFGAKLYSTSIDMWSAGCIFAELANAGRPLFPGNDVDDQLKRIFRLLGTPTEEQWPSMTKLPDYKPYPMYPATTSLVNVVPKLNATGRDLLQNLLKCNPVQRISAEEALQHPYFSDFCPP
# T3 sequence (Q15078 99-307 partner limits assumed): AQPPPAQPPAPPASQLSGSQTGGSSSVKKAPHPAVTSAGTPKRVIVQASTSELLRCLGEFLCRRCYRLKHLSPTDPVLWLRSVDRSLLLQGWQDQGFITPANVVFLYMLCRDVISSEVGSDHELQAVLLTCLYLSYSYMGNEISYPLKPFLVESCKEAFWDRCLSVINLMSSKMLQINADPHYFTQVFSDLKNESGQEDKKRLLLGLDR
# [17] = biological target: T3, Cyclin-dependent kinase 5/CDK5 activator 1 (Homo sapiens); test: Inhibition of recombinant human CDK5/p25 extracted from bacteria using histone H1 as substrate assessed as enzyme residual activity at 1 uM incubated for 30 mins in presence of ATP by ADP-Glo kinase assay relative to control; assay type: protein-complex assay
# [18] = biological target: T4, Serine/threonine-protein kinase pim-1 (Homo sapiens, UniProt P11309); test: Inhibition of recombinant human PIM-1 extracted from bacteria using histone H1 as substrate assessed as enzyme residual activity at 10 uM incubated for 30 mins in presence of ATP by ADP-Glo kinase assay relative to control
# Target sequence in this assay (P11309 whole entry, looked up): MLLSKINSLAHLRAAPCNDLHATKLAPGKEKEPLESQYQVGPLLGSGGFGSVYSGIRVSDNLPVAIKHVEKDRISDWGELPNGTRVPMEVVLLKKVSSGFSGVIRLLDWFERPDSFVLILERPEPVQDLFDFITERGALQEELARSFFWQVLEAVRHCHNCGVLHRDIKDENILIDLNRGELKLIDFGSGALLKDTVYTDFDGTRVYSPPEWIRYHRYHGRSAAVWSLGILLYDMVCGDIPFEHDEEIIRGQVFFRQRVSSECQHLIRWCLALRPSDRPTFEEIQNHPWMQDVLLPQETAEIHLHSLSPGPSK
# [19] = biological target: T4, Serine/threonine-protein kinase pim-1; test: Inhibition of recombinant human PIM-1 extracted from bacteria using histone H1 as substrate assessed as enzyme residual activity at 1 uM incubated for 30 mins in presence of ATP by ADP-Glo kinase assay relative to control
# Target sequence in this assay (P11309 whole entry, looked up): as above
# [20] = Selectivity index, ratio of IC50 for inhibition of recombinant rat DYRK1A kinase domain (1to 499 residues) extracted from bacteria to IC50 for inhibition of human haspin kinase domain (470 to 798 residues) extracted from bacteria using histone H3 (1 to 21) peptide as substrate
# SH-SY5Y = test: Antiproliferative activity against human SH-SY5Y cells assessed as inhibition of cell viability incubated for 48 hrs by MTS assay; assay type: functional, cell-based
# U2OS = test: Antiproliferative activity against human U2OS cells assessed as inhibition of cell viability incubated for 48 hrs by MTS assay; assay type: functional, cell-based
# [21] = biological target: T4, Serine/threonine-protein kinase pim-1; test: Inhibition of recombinant human PIM-1 extracted from bacteria using histone H1 as substrate incubated for 30 mins in presence of ATP by ADP-Glo kinase assay
# Target sequence in this assay (P11309 whole entry): as the sequence (P11309 whole entry, looked up) above
# [22] = Cytotoxicity against human hTERT-RPE1 cells assessed as effect on cell viability incubated for 48 hrs by MTS assay; assay type: toxicity, cell-based, TERT-RPE1
# HBL-100 = test: Antiproliferative activity against human HBL-100 cells assessed as inhibition of cell viability incubated for 48 hrs by MTS assay; assay type: functional, cell-based; conditions: HBL-100, 48 h
# HCT-116 = test: Antiproliferative activity against human HCT-116 cells assessed as inhibition of cell viability incubated for 48 hrs by MTS assay; assay type: functional, cell-based; conditions: HCT-116, 48 h
# [23] = biological target: T1, Serine/threonine-protein kinase haspin (Homo sapiens); test: Inhibition of haspin in human U2OS cells assessed as at 5 uM incubated for 16 hrs by DAPI staining based immunofluorescence analysis relative to control; assay type: cell-based
# [24] = biological target: T1, Serine/threonine-protein kinase haspin (Homo sapiens); test: Inhibition of haspin in human U2OS cells assessed as at 1 uM incubated for 16 hrs by DAPI staining based immunofluorescence analysis relative to control; assay type: cell-based
SMILES,Activity [1] [%],Activity [2] [%],IC50 [3] [µM],Activity [4] [%],Activity [5] [%],Activity [6] [%],IC50 [7] [µM],Activity [8] [%],IC50 [9] [µM],Activity [10] [%],Activity [11] [%],Activity [12] [%],Activity [13] [%],Activity [14] [%],Activity [15] [%],Activity [16] [%],Activity [17] [%],Activity [18] [%],Activity [19] [%],EC50 (SH-SY5Y) [µM],other results
c1ccc(-c2c[nH]c3cc4cnccc4cc23)nc1,3,8,0.0844,11,10,27,0.387,27,0.159,49,90,72,84,90,97,35,72,19,63,–,Ratio IC50 [20]: 1.9
Cn1cc(-c2cccnc2)c2cc3ccncc3cc21,3,9,0.0317,12,7,18,0.177,33,0.498,39,81,34,69,65,94,75,79,54,45,17.7,EC50 (U2OS): 11.5 µM; IC50 [21]: 0.876 µM; EC50 at 48 h [22]: 17.8 µM; EC50 (HBL-100): 26.9 µM; EC50 (HCT-116): 15 µM; inhibition [23]: No effect
CCCNc1ccc2ncc(-c3ccc4[nH]ncc4c3)n2n1,–,–,–,–,–,–,–,–,–,–,–,–,–,–,–,–,–,–,–,–,inhibition [24]: 100%
Cn1cc(-c2ccncc2)c2cc3ccncc3cc21,5,7,0.0236,9,13,35,0.546,23,0.339,59,97,92,74,42,72,44,63,18,37,6.4,EC50 (U2OS): 3.2 µM; IC50 [21]: 1.27 µM; EC50 at 48 h [22]: 2.3 µM; EC50 (HBL-100): 6.6 µM; EC50 (HCT-116): 2.1 µM; inhibition [23]: 37%

# Reference: ChEMBL document CHEMBL6182870, “Synthesis and biological activity of 1H-pyrrolo[3,2-g]isoquinolines as Haspin kinase inhibitors” (Bioorg Med Chem, 2025)
